# Entries after “also recorded” stand apart in the source; their conditions may differ.
# What was measured:
# HepG2 cells [1] = test: Imaging a decrease in free thiol level in HepG2 cells under oxidative stress; type: cell-based; conditions: 10 min; for fluorescence from labeling of free thiols, solvent control cells: 50 μM, same imaging parameters; for change in cellular fluorescence intensity upon H2O2 pretreatment: H2O2 0.5 or 1 mM 15 min, probe 50 μM
# Method: Imaging a Decrease in Free Thiol Level in HepG2 Cells Under Oxidative Stress by NAIA-5 or IAA
# HepG2 cells were plated on a 8-well Nunc Lab-Tek chambered slide system and allowed to grow in complete medium at 37° C. with 5% CO2 to ca. 70% confluency. The cells were then pretreated with solvent vehicles, H2O2 (0.5 or 1 mM) or H2O2 (1 mM)+NAC (5 mM) in complete medium for 15 min at 37° C. The cells were washed with PBS and incubated with NAIA-5 or IAA (50 μM) in complete medium for 10 min at 37° C. After that, the cells were washed with PBS and fixed by 4% paraformaldehyde in PBS at room temperature for 15 min. The fixed cells were washed with PBS, permeabilized by PBS with 0.5 vol % Triton X-100 at room temperature for 30 min, washed again with PBS and incubated with a master mix solution containing CuSO4, THTPA, azide-fluor 545 and sodium ascorbate at final concentrations of 100, 500, 20 and 5000 μM respectively. After incubation in dark at room temperature for 1 h, the cells were washed with PBS and stained by Hoechst 33342 in PBS (final concentration=8.2 μM) at room temperature for 15 min. The cells were washed thrice with PBS and then imaged in PBS by confocal fluorescence microscopy.
# (§1) Confocal fluorescence microscopy imaging was performed with a Zeiss laser scanning microscope 880 with a 20× water-immersion objective lens using ZEN 2.3 (Black Version) software (Carl Zeiss) with 3× magnification zoom-in. Hoechst 33342 was excited with a 405 nm diode laser, and emission was collected on a META detector between 371 and 507 nm. Fluor 545 was excited by a 561 nm diode laser and emission was collected on a META detector between 576 and 683 nm. Image analysis was performed by use of ImageJ. A region of interest (ROI) was created around individual cell, and cellular fluorescence intensity was measured. The reported average cellular fluorescence intensity was determined by averaging the measured intensity from 30 different cells from 3 different biological replicates/group. Statistical analyses were performed with a two-tailed Student's t-test (MS Excel).
# These attractive features indicate the good potential of using NAIs/NAIAs to trap cellular thiols in live cells that should allow better identification of cysteine oxidative modifications. To explore this potential application, we first sought to capture and image free thiols by NAIA-5 in live HepG2 cells by confocal fluorescence microscopy (FIG. 4A). HepG2 cells were pretreated with solvent vehicles, H2O2 or H2O2+N-acetyl cysteine (NAC), where NAC can scavenge H2O2 and relieve the oxidative stress in the HepG2 cells. After the pretreatment, the cells were incubated with NAIA-5 or IAA (50 μM) for 10 min to ligand and snap-shot free cellular thiols. […]
# [2] = Selectivity for reacting with Cys over other amino acids (LC-MS); type: physicochemical; conditions: compound 10 μM, amino acid 30 μM (3 equiv.), 30 min, PBS/MeOH 4:1
# Method: Selectivity of NAI for Reacting with Cys Over Other Amino Acids
# Stock solution of NAIA-4 and NAIA-5, respectively, in DMSO was diluted by PBS/MeOH solution mixture (4:1, v/v; 500 μL), reaching final concentration of 10 μM. Stock solution of amino acid in DMSO was then freshly prepared, and added to the compound solution at final concentration of 30 μM. The solution mixture was incubated at room temperature for 30 min. After that, an aliquot of the reaction mixture (10 μL) was sent for LC-MS analysis. Selected ion chromatograms, with m/z=325 corresponding to [NAIA-4+H]^+ or [NAIA-5+H]^+, were extracted and analyzed by integrating the area under curve.
# As fast-reacting probes are often susceptible to hydrolysis, we sought to investigate the aqueous stability of NAIA-C5 amide. […] Taking the excellent reaction kinetics and a mere 14% degradation in 30 min into account, NAIA-C5 amide was considered to be a useful tool in cysteine profiling (FIG. 17C and FIG. 17F).
# HepG2 cells [3] = test: Confocal fluorescence imaging of HepG2 cells labeled with probe for different time intervals; type: cell-based; conditions: 10 μM; for cellular fluorescence intensity: 15, 30 and 60 min
# Method: HepG2 Cells Labeled by NAIA-5 or IAA with Different Time Intervals for Imaging Experiments
# HepG2 cells were plated on a 8-well Nunc Lab-Tek chambered slide system (ThermoFisher Scientific; 177402) and allowed to grow in complete medium at 37° C. with 5% CO2 to ca. 70% confluency. The cells were incubated with NAIA-5 and IAA (10 μM) respectively in complete medium for the indicated time interval, washed with PBS and then fixed by 4% paraformaldehyde in PBS at room temperature for 15 min. After washing with PBS, the fixed cells were permeabilized by PBS with 0.5 vol % Triton X-100 at room temperature for 30 min. The cells were then washed and incubated with a master mix solution containing CuSO4, THTPA, azide-fluor 545 and sodium ascorbate at final concentrations of 100, 500, 20 and 5000 μM respectively. After incubation in dark at room temperature for 1 h, the cells were washed with PBS and stained by Hoechst 33342 in PBS (final concentration=8.2 μM) at room temperature for 15 min. The cells were washed thrice with PBS and then imaged by confocal fluorescence microscopy. Hoechst 33342 was excited with a 405 nm diode laser, and emission was collected on a META detector between 371 and 507 nm. Fluor 545 was excited by a 561 nm diode laser and emission was collected on a META detector between 576 and 683 nm. Image analysis was performed by use of ImageJ. A region of interest (ROI) was created around individual cell, and cellular fluorescence intensity was measured. The reported average cellular fluorescence intensity was determined by averaging the measured intensity from 30 different cells from 3 different biological replicates/group. Statistical analyses were performed with a two-tailed Student's t-test (MS Excel).
# as §1
# To examine the underlying mechanism of better cysteine labeling in live cells by NAIA, we conducted confocal fluorescence imaging experiments on HepG2 cells treated with NAIA-5 and IAA respectively (both at 10 μM). After treatment for the indicated time intervals, the cells were washed with PBS, fixed by 4% paraformaldehyde in PBS and reacted with azide-fluor 545 through CuAAC. The stained cells were then washed with PBS and imaged by confocal fluorescence microscopy. […] In view of the fast and better labeling of reactive cysteines in live cells, we anticipate that NAIAs can be good candidates for capturing cysteines with dynamic changes in reactivity/modifications in cells. The ability of NAIAs to work nicely with confocal fluorescence microscopic imaging also illustrates their potential application as imaging probes for cellular cysteine reactivity. […]
SMILES,"fluorescence from labeling of free thiols, solvent control cells (HepG2 cells [1])",change in cellular fluorescence intensity upon H2O2 pretreatment (HepG2 cells [1]),selectivity toward cysteine over other amino acids [2],labeling of cytosolic and nuclear proteins (colocalization with Hoechst channel) (HepG2 cells [3]),cellular fluorescence intensity (HepG2 cells [3]),cellular permeability (HepG2 cells [3]; inferred from live-cell imaging)
"C#CCCCCNC(=O)CI [IAA, N-Hex-5-ynyl-2-iodoacetamide, reference compound]",almost no fluorescence can be detected in IAA-labeled cells,cannot see statistically significant changes in fluorescence intensity,undesired reactivity with serine and lysine,lower Manders' colocalization coefficient,much weaker fluorescence at 15 min,
C#CCCCCNC(=O)COc1ccc2c(ccn2C(=O)C=C)c1 [NAIA-5],strong fluorescence from NAIA-5 labeling,H2O2 dose-dependent decrease in cellular fluorescence intensity,excellent selectivity toward cysteine over other amino acids; also recorded: Significant decreases in NAIA-4 and NAIA-5 levels were only found in the solution mixture with N-acetyl-L-cysteine methyl ester,good labeling of proteins in both cytosol and nucleus,Significantly higher fluorescence intensities were found in cells treated with NAIA-5 than IAA,good cellular permeability
